Results taken from patent US20220235136A1, “METHODS AND COMPOSITIONS FOR TREATING A DISEASE OR DISORDER” (YALE UNIVERSITY, priority 2019, published 2022).

Key:
B16 melanoma = assay: subcutaneous B16 melanoma mouse tumor model; details: alone or combination
Experimental: For B16 tumor model, C57BL/6 mice were inoculated subcutaneously with B16 melanoma at 2×1^5 per mouse. […] CD93 mAb (300 μg i.p.) treatment was administrated on the day of randomization (day 0), day 4 and day 9. 5-FU (3.5 mg i.p.) was administrated on day 2 and day 7. Measurements of tumor size were taken every 2 or 3 days. When tumor volume was exceeding 2000 mm^3 and/or ulceration formed, tumor bearing mice were considered as death for the calculation of survival curve.

HUVEC cells = assay: HUVEC tube formation and transwell migration assay with exogenous IGFBP7 protein; format: cell-based, human
Experimental: Pooled human umbilical vein ECs (HUVEC) purchased from Thermo Fisher were cultured in Medium 200 with LVES (Life Technologies). C57BL/6 mouse primary aortic ECs and the endothelium culture medium with supplement were purchased from Cell Biologics. For tube formation, HUVECs at 2×10^4 cells/ml were plated on Matrigel in 24-well plate. Image was recorded even 4-6 hours after incubation. The Transwell 6.5 mm polycarbonate membrane inserts pre-loaded in 24-well culture plates (Corning 3422, 8 um) were used in the cell migration model. HUVEC cells at 1×10^5/ml in 200 μl were loaded into each 24-well insert with 500 μl IBS-containing medium with different reagents in the lower chamber. After approximately 20 hours, the migrated cells were fixed with methanol, stained with Giemsa solution and counted under a light microscope.

CD93 binding by MMRN2 = target: T1, CD93 binding by MMRN2 (Homo sapiens, UniProt Q9NPY3); assay: MMRN2-Ig binding to CD93-expressing CHO cells in the presence of IGFBP7-His; details: IGFBP7 added
T1 construct: expressed in transfected cells
T1 sequence (Q9NPY3 22-652): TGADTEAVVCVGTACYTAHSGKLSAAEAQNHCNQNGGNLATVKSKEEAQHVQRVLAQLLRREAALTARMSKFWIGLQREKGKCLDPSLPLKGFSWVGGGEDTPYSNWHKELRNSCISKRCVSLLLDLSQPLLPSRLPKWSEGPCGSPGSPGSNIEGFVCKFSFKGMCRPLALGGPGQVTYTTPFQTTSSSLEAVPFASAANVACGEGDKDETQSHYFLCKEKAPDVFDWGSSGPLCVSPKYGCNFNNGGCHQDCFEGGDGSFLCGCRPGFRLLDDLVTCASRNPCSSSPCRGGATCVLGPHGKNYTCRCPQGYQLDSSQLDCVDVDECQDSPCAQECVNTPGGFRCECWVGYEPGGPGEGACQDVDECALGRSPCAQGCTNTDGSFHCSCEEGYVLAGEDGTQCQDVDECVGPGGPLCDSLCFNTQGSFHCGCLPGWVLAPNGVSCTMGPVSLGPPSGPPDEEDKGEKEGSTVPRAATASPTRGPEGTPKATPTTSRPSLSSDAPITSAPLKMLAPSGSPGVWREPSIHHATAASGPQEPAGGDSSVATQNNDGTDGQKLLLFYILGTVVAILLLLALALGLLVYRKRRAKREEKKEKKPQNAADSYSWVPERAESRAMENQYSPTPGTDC
T1 sequence (Q9H8L6 23-949 partner): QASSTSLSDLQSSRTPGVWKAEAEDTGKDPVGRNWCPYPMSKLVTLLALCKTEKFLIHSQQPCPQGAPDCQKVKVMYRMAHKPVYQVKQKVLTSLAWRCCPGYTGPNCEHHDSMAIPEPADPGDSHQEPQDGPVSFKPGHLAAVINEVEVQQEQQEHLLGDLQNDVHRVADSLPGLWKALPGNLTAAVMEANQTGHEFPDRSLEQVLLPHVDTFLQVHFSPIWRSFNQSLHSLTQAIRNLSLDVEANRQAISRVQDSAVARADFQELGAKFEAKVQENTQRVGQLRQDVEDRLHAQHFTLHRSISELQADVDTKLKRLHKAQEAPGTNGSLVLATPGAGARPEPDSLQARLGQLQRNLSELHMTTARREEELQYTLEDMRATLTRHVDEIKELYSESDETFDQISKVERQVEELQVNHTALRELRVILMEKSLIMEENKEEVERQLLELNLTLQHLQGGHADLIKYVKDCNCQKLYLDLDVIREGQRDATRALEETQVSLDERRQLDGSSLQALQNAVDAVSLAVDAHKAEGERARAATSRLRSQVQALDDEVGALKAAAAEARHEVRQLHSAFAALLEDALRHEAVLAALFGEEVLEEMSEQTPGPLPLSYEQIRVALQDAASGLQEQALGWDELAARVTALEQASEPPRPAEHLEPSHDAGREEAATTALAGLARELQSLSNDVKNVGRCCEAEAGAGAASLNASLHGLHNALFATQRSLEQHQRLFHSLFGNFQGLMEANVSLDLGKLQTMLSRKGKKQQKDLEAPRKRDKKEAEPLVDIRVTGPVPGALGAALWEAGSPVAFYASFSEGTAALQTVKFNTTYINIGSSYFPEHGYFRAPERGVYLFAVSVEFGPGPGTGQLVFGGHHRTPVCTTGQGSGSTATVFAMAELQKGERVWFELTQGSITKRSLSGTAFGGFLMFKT
Experimental: In FIG. 28A, binding of HEK293 T cells transfected to express group 14 C-type lectin molecules were stained for the binding of IGFBP7-Ig and MMRN2-Ig. In FIG. 28B. CHO cells stably expressing CD93 were stained with control or MMRN2-Ig, with or without the presence of IGFBP7-His protein. In FIG. 28C, well coated with IGFBP7-His protein were incubated with CD93-His protein before examining for MMRN2-Ig binding by ELISA. Wells coated with CD93-His protein were used as a positive control. In FIG. 28D. HEK293T cells transfected with control or CD93 construct were stained with MMRN-Ig for binding, with or without the presence of anti-mCD93 (7C10). In FIG. 28E HEK293T cells transfected to express different mouse CD93 mutants were stained with anti-CD93 (7C10), IGFBP7-Ig, and MMRN2-Ig.

CD93 = target: T2, CD93 (Homo sapiens, UniProt Q9NPY3); assay: binding of Ig fusion proteins to CD93 transfectant (flow cytometry)
T2 construct: expressed in transfected cells; host or cells: 293 cells (CD93+ 293)
T2 sequence (Q9NPY3 22-652): T1 sequence (Q9NPY3 22-652)
Description: FIGS. 10A-10B show identification of the binding domain on IGFBP7 for CD93. Each extracellular domain for IGFBP7, including insulin binding (IB). Kazal, and Ig, was swapped with the corresponding domain on IGFBPL1 using PCR cloning and fused to a C-terminal Ig. These chimeric mutants were transiently expressed in HEK293T cells and supernatants were used to stain CD93 transfectant. FIG. 10A depicts whether multiple chimeric IGFBP7 mutants bind to CD93. FIG. 10B depicts various human genes containing IB-domain constructed onto an expression vector containing Fc-Tag. Constructs were transiently transduced into HEK293T cells to produce Fc tagged fusion proteins in the supernatant. Supernatant was used to stain CD93 transfectant by flow cytometry. Binding index represents the ratio of binding MFI of CD93 transfectant to control cells.
The IGFBP7-IGFBPL1 chimeras were generated by two-step PCR. […]
Cell surface and intercellular staining and analysis by flow cytometry were followed the protocol previously described (71). Dead cells were excluded with SYTOX® (Blue Dead Cell Stain Kit (Thermo Fisher Scientific). Flow cytometric analysis was conducted with a BD FACS Calibur or a BD LSRFortessa™ cell analyzer (BD Bioscience, Franklin Lakes, N.J. USA), and then data were analyzed by FlowJo software (Tree Star Inc.)

human IGF1R = target: T3, human IGF1R (Homo sapiens, UniProt P08069); assay: IGFBP7-Ig binding to IGF1R transfected CHO cells (flow cytometry)
T3 construct: expressed in transfected cells; host or cells: CHO
T3 sequence (P08069 31-736 limits assumed): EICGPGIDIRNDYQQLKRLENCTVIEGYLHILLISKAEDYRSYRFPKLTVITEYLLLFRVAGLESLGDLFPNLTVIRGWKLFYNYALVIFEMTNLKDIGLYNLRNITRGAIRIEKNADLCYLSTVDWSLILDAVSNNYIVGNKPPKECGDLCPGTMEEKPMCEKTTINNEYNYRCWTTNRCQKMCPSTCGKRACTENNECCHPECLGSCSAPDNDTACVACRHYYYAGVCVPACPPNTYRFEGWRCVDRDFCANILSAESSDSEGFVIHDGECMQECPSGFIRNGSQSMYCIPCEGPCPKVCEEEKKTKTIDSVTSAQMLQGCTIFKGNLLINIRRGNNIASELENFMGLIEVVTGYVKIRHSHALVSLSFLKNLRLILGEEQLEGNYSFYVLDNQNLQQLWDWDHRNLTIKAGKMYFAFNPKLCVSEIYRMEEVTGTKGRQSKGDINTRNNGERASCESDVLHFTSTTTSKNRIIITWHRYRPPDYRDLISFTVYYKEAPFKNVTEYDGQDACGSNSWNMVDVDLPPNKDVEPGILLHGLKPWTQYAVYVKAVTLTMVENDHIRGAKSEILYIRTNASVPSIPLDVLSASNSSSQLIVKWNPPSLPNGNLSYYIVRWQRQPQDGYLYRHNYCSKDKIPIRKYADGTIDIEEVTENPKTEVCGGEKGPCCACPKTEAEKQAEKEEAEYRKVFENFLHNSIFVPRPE
T3 sequence (P08069 741-1367 limits assumed): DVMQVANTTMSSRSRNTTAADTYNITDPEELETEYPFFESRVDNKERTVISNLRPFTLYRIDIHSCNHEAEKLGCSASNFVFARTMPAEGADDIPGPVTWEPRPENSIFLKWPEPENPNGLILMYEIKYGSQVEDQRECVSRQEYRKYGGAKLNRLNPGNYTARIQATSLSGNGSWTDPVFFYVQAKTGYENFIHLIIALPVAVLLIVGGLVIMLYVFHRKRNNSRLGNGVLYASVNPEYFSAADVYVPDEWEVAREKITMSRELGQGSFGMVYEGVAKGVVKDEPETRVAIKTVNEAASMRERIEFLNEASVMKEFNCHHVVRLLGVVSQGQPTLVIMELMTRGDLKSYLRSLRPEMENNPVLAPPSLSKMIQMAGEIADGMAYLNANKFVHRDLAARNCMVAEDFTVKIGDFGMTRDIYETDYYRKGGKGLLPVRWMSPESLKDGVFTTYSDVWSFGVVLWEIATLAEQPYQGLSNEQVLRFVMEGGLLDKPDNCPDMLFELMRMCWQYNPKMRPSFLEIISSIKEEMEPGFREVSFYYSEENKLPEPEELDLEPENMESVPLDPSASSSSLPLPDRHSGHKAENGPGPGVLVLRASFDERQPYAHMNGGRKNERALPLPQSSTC
Experimental: Wild type CHO and IGF1R transfected CHO cells were stained for human IGF1R staining antibody to confirm surface IGF1R expression. At the same time, cells were incubated with IGFBP7-Ig for possible interaction by flow cytometry analysis, […]

[1] = system: IGFBP7 expression in tumor endothelial cells; details: 24 hours after treatment; published RNA-Seq data; cited from earlier work

Q: With O=c1[nH]cc(F)c(=O)[nH]1 [5-FU, 5-fluorouracil] as the compound, how does the B16 tumor growth (B16 melanoma) read?
A: Its B16 tumor growth is “modestly inhibited”.

Q: For “IGFBP7: a secreted protein of the insulin growth factor binding protein (IGFBP) family; recombinant protein / Fc fusion”, which “tube formation or EC migration in CD93 knockdown HUVEC cells” value (HUVEC cells; CD93 siRNA) is on record?
A: Its value is “lost its effect”.

Q: What about the “tube formation and proliferation of wild type HUVEC cells” value (HUVEC cells; exogenous protein added) of the same compound?
A: Its value is “increased”.

Q: And the “effect on the CD93 binding by MMRN2” value (CD93 binding by MMRN2)?
A: The value was “did not interfere”.

Q: And the “binding to CD93 293 cells / CD93 transfectant” value (CD93; flow cytometry)?
A: Its value is “strongly”.

Q: What about the “binding to group 14 C-type lectin molecules” value (CD93; transfected HEK293T cells) of the same compound?
A: Its value is “only bound to CD93”.

Q: What about the “binding to human IGF1R transfectant” value (human IGF1R) of the same compound?
A: The value was “fails to bind”.

Q: With aflibercept: a VEGF inhibitor as the compound, how does the “IGFBP7 in tumor ECs” value [1] read?
A: Its value is “significantly inhibited”.
